Test results as given in patent US4921528A, “Substituted azolylmethyl-cyclopropyl-carbinol derivatives” (Bayer Aktiengesellschaft, priority 1984, dated 1990).

Tests used:
Format in all cases: in vivo
Barley plants = assay: Inhibition of growth of barley; conditions: sprayed until dripping wet; measured after 3 weeks; compared with prior-art compounds (A), (B), (C) and (D)
Description: Inhibition of growth of barley
(§1) Solvent: 30 parts by weight of dimethylformamide
(§2) Emulsifier: 1 part by weight of polyoxyethylene sorbitan monolaurate.
(§3) To produce a suitable preparation of active compound, 1 part by weight of active compound is mixed with the stated amounts of solvent and emulsifier and the mixture is made up to the desired concentration with water.
Barley plants are grown in a greenhouse to the 2-leaf stage. In this stage, the plants are sprayed with the preparations of active compound until dripping wet. After 3 weeks, the additional growth is measured on all plants and the inhibition of growth in per cent of the additional growth of the control plants is calculated. 100% inhibition of growth means that growth has stopped and 0% denotes a growth corresponding to that of the control plants.

Cotton plants = assay: Inhibition of growth of cotton; conditions: sprayed until dripping wet; measured after 3 weeks; compared with prior-art compound (A)
Description: Inhibition of growth of cotton
as §1
Emulsifier: 1 part by weight of […] sorbitan monolaurate.
as §3
Cotton plants are grown in a greenhouse until the 5th secondary leaf has unfolded completely. In this stage, the plants are sprayed with the preparations of active compound until dripping wet. After 3 weeks, the additional growth of the plants is measured and the inhibition of growth in per cent of the additional growth of the control plants is calculated. 100% inhibition of growth means that growth has stopped and 0% denotes a growth corresponding to that of the control plants.

Rice = assay: Inhibition of growth of rice; conditions: pots placed in active compound solution; length determined after development of the third leaf
Description: Inhibition of growth of rice
as §1, §2
To prepare a suitable preparation of active compound, 1 part by weight of active compound is mixed with the stated amounts of solvent and emulsifier, and the mixture is made up to the desired concentration with water.
Rice is grown in climatic chambers in small pots containing vermiculite, until the first leaf reaches a size of 1-2 cm. At this stage, the pots are placed in the prepared active compound solutions to a height corresponding to half the height of the pot.
After the development of the third leaf, the length of all plants is determined, and expressed as a percentage of the length of the control plants. 100% means growth corresponding to that of the control plants, values below 100% mean inhibition of growth, and values above 100% mean promotion of growth.

Soya bean plants = assay: Inhibition of growth of soya beans; conditions: sprayed until dripping wet; measured after 3 weeks; compared with prior-art compound (D)
Description: Inhibition of growth of soya beans
as §1, §2, §3
Soya bean plants are grown in a greenhouse until the first secondary leaf has unfolded completely. In this stage, the plants are sprayed with the preparations of active compound until dripping wet. After 3 weeks, the additional growth is measured on all the plants and the inhibition of growth in per cent of the additional growth of the control plants is calculated. 100% inhibition of growth means that growth has stopped and 0% denotes a growth corresponding to that of the control plants.

Venturia inaequalis = assay: Venturia test (apple)/protective; conditions: young apple plants sprayed, then inoculated; evaluation 12 days after inoculation; compared with comparative substance (c)
Description: Venturia test (apple)/protective/ Solvent: 4.7 parts by weight of acetone Emulsifier: 0.3 parts by weight of alkylaryl polyglycol ether. To produce a suitable preparation of active compound, 1 part by weight of active compound is mixed with the stated amounts of solvent and emulsifier, and the concentrate is diluted with water to the desired concentration. To test for protective activity, young plants are sprayed with the preparation of active compound until dripping wet. After the spray coating has dried on, the plants are inoculated with an aqueous conidia suspension of the apple scab causative organism (Venturia inaequalis) and then remain in an incubation cabinet at 20° C. and 100% relative atmospheric humidity for 1 day. The plants are then placed in a greenhouse at 20° C. and a relative atmospheric humidity of about 70%. Evaluation is carried out 12 days after the inoculation.

In the case of `CC[S+]([O-])C1(C(O)(Cn2cncn2)c2ccc(Cl)cc2)CC1` (stereo not shown) [Compound I-3, 1-(4-chlorophenyl)-1-[1-(ethylsulphinyl)-1-cyclopropyl]-2-(1,2,4-triazol-yl)1-ethanol], the “inhibition of growth of barley (per cent of additional growth of control plants)” value (Barley plants) is reported as “more pronounced inhibition of growth than the compounds (A), (B), (C) and (D)”, the “inhibition of growth of cotton (per cent of additional growth of control plants)” value (Cotton plants) is reported as “more pronounced inhibition of growth than the compound (A)” and the “inhibition of growth of rice (length of plants as percentage of control plants)” value (Rice) is reported as “pronounced inhibition of growth”. For the same compound, the “inhibition of growth of soya beans (per cent of additional growth of control plants)” value (Soya bean plants) was “more pronounced inhibition of growth than the compound (D)”.

`CCSC1(C(O)(Cn2cncn2)c2ccc(Cl)cc2)CC1` (stereo not shown) [Compound I-1, 1-(4-chlorophenyl)-1-[1-(ethylthio)-1-cyclopropyl]-2-(1,2,4-triazol-1-yl)1-ethanol] was tested, and the “protective activity against apple scab (Venturia inaequalis)” value (Venturia inaequalis) was “better activity than the known comparative substance (c)” and the “inhibition of growth of rice (length of plants as percentage of control plants)” value (Rice) was “pronounced inhibition of growth”.

For `OC(Cn1cncn1)(c1ccc(Cl)cc1)C1(Oc2ccccc2)CC1` (stereo not shown) [Compound I-5], the “inhibition of growth of barley (per cent of additional growth of control plants)” value (Barley plants) was “more pronounced inhibition of growth than the compounds (A), (B), (C) and (D)”, the “inhibition of growth of cotton (per cent of additional growth of control plants)” value (Cotton plants) was “more pronounced inhibition of growth than the compound (A)” and the “inhibition of growth of rice (length of plants as percentage of control plants)” value (Rice) was “pronounced inhibition of growth”.

In the case of `CCCCSC1(C(O)(Cn2cncn2)c2ccc(Cl)cc2)CC1` (stereo not shown) [Compound I-6], the “inhibition of growth of rice (length of plants as percentage of control plants)” value (Rice) is reported as “pronounced inhibition of growth”.
